Measurements: ChEMBL document CHEMBL1133272, “A solid-phase synthesis for beta-turn mimetics of sialyl Lewis X” (Bioorg Med Chem Lett, 2000)

What was measured:
[1] = biological target: T1, E-selectin (Homo sapiens, UniProt P16581); assay: In vitro inhibitory activity of compound was determined against Selectin E binding by ELISA assay
T1 sequence (P16581 whole entry): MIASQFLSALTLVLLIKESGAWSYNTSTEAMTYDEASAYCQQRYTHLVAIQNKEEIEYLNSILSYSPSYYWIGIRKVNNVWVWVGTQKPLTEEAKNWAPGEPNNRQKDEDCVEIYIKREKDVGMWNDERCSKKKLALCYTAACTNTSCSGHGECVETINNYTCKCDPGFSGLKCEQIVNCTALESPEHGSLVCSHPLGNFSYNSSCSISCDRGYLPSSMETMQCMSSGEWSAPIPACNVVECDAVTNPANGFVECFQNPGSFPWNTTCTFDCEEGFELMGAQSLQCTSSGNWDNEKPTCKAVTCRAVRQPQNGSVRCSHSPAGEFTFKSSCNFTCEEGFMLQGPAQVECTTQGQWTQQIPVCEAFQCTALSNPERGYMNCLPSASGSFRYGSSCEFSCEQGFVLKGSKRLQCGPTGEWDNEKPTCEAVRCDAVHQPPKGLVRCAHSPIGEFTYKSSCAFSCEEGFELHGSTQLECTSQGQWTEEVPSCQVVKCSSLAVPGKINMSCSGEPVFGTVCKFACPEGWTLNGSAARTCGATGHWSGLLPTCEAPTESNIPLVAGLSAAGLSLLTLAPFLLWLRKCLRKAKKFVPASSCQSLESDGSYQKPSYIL

[2] = biological target: T2, L-selectin (Homo sapiens, UniProt P14151); assay: In vitro inhibitory activity of compound was determined against Selectin L binding by ELISA assay
T2 sequence (P14151 whole entry): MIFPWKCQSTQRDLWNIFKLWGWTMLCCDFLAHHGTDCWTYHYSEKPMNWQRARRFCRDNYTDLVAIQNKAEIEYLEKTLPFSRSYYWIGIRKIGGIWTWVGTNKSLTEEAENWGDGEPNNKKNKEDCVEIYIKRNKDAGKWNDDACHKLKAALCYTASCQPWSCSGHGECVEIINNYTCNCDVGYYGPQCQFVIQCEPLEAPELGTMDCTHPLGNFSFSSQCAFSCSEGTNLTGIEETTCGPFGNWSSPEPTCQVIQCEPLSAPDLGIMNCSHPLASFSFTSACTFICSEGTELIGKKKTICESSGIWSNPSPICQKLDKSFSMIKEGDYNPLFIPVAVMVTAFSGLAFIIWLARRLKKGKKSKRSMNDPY

[3] = biological target: T3, P-selectin (Homo sapiens, UniProt P16109); assay: In vitro inhibitory activity of compound was determined against Selectin P binding by ELISA assay
T3 sequence (P16109 whole entry): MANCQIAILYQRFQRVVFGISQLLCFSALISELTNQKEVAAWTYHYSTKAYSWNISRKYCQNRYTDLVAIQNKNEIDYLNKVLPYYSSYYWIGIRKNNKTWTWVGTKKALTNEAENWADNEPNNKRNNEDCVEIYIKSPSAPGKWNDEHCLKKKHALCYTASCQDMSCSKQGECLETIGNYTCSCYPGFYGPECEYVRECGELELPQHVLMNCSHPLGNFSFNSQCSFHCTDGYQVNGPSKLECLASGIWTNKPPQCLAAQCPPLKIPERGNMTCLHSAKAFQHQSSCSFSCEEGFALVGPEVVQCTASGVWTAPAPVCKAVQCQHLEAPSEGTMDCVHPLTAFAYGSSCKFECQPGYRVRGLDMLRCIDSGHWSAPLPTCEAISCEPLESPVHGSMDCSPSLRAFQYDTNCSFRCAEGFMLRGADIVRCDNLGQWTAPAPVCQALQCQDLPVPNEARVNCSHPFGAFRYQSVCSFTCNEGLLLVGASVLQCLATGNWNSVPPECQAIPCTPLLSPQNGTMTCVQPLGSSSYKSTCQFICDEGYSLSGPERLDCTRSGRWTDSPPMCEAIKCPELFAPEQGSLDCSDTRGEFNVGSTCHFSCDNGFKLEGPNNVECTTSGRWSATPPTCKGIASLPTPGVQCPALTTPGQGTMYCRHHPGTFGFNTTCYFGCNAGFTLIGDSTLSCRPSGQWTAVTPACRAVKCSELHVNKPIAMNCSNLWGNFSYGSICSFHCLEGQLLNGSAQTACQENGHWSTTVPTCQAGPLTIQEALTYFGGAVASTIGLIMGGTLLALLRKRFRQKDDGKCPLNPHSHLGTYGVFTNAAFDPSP

IC50 [1] [µM]	IC50 [2] [µM]	IC50 [3] [µM]	SMILES
> 100	2.34	2.57	CCCCCCCCCCCCCCC(CCCCCCCCCCCCCC)CN1CCCS[C@@H](CCC(=O)O)C(=O)N[C@H](CO[C@H]2O[C@H](CO)[C@@H](O)[C@@H](O)[C@@H]2O)C1=O
3.5	4	0.45	CCCCCCCCCCCCCCC(CCCCCCCCCCCCCC)C(=O)N[C@@H](CO[C@@H]1O[C@@H](CO)[C@H](O)[C@H](O)[C@H]1O)C(=O)N[C@H](CCC(=O)O)C(=O)NC
–	> 1000	> 1000	CC(=O)N[C@H]1[C@H]([C@H](O)[C@H](O)CO)O[C@@](O[C@H]2[C@@H](O)[C@@H](CO)O[C@@H](O[C@@H]([C@H](O[C@@H]3O[C@@H](C)[C@@H](O)[C@@H](O)[C@@H]3O)[C@H](C=O)NC(C)=O)[C@H](O)CO)[C@@H]2O)(C(=O)O)C[C@@H]1O [SIALYL LEWIS X]
